Results: article PMC9917023, “Stabilization of Monomeric Tau Protein by All D-Enantiomeric Peptide Ligands as Therapeutic Strategy for Alzheimer’s Disease and Other Tauopathies” (International Journal of Molecular Sciences, 2023)
Non-standard residues stand in square brackets, D forms with d. Residues, ends and D or L forms follow the SMILES beside them.

What was measured:
[1] = Stability in human blood plasma; assay type: in vitro ADME; conditions: K3EDTA human blood plasma, after 48 h; read-out: still detectable in human blood plasma
Procedure: (§1) Figure 12 Stability assay of TF2D-5 and TF2D-5a using different simulated human body fluids. (A) Stability of compounds in simulated gastric fluid (SGF). The simulated gastric fluid consisted of 2 mg/mL sodium chloride, 3.2 mg/mL pepsin, and 80 mM HCl; pH 1. (B) Stability of TF2D-5 and TF2D-5a in simulated intestinal fluid (SIF). Simulated intestinal fluid consisted of 6.8 mg/mL potassium dihydrogen phosphate, 10 mg/mL pancreas powder, and 15.4 mM NaOH; pH 6.8. (C) Stability of TF2D-5 and TF2D-5a in human blood plasma. K3EDTA human blood plasma was purchased from BioTrend. (D) Stability of TF2D-5 and TF2D-5a in human liver microsomes. Human liver microsomes consisted of 6 mg/mL protein (containing Cytochrome P450 (CYP) enzymes), 75 mM sucrose, 1.3 mM NADPH, 3.3 mM D-glucose-6-phosphat, 0.2 u/mL D-glucose-6-phosphat dehydrogenase, 3.3 mM magnesium chloride, and 100 mM potassium phosphate; pH 7.4.
(§2) The stability of the compounds was tested according to Elfgen et al. and Schemmert et al. Exceptions included the extraction of plasma, simulated gastric fluid (SGF), and simulated intestinal fluid (SIF) samples. These were obtained by the addition of 12.5 µL 0.35 M ZnSO4, followed by vortexing, the addition of 12.5 µL 0.5 M HCl, additional vortexing, and centrifugation at 14,000× g for 10 min at 4 °C.

[2] = system: brain endothelial cells (RBMVEC) and astroglial cells (CTX TNA2)
Procedure: Each peptide was tested at different time points in triplicate next to an unseeded negative control (“Empty”) and quantitatively analyzed via HPLC using a calibration curve to determine the concentration of the peptide in the receiving chamber at each point in time (Figure 11). From these values, the volume of each chamber, and the respective time, a Papp permeability coefficient in cm²/s was calculated for each substance to represent its ability to cross the in vitro blood–brain barrier model.
An amount equaling 1 mg/mL TF2D-5 (A) or TF2D-5a (B) was added to an insert that was seeded and covered with endothelial and astroglial cells, representing the in vitro blood–brain barrier, or an empty insert serving as a control. After different time points, samples were taken and analyzed by quantitative HPLC analysis. Data given as mean ± SD out of three independent replicates.
Brain endothelial cells from rats and astroglial cells were used to cultivate the different sides of the porous membrane.
Brain endothelial cells from rats (RBMVEC, Cell Applications Inc., R840-05a, San Diego, CA, USA) were cultivated in Complete Classic medium (Cell Systems, Kirkland, WA, USA, 4Z0-500), and rat astroglial cells (CTX TNA2, ATCC, CRL-2006) were cultivated in Complete Classic medium (Cell Systems, Kirkland, WA, USA, 4Z0-500). The cells were allowed to grow in a humidified incubator with 5% CO2 at 37 °C and a maximum of 20 passages. The cells were passaged every 3 to 5 days, according to their confluence.
In order to set up the in vitro BBB model, the astroglial cells were seeded at a density of 600.000 cells/cm² on the outer (basolateral, “brain”) side of an insert with a porous membrane (Corning Transwell polycarbonate membrane cell culture inserts, CLS3415, 3 µM pore size) and allowed to grow/adhere overnight in the Complete Classic medium. The next day, brain endothelial cells were seeded at a density of 600.000 cells/cm² on the inner side (apical, “blood”) of the corresponding membrane. The seeded inserts were then cultivated to grow to full confluence over a period of 5 to 7 days, with the medium renewed daily. […] Prior to this, TEER (transendothelial electrical resistance values) were measured in each well to ensure the integrity of the in vitro BBB. At 0, 30, 60, 90, 120, 150, 180, and 240 min, 50 µL of the medium out of the outer chamber was taken and analyzed by HPLC. This 50 µL would then be replaced by the same amount of fresh serum-free medium to keep the fluid levels equal across both chambers. This slight dilution was factored into the following calculations. Furthermore, a dilution series of each reagent was analyzed alongside the samples as a calibration to quantify the analysis. […] The Papp values were calculated as follows (higher is better): Papp =(V/A∗C)∗(Dc/Dt)

[3] = system: SH-SY5Y cells; assay: Cell-viability assay (MTT); assay type: cell-based, human; conditions: 0.2, 1 and 5 µM, 24 h, 37 °C
Procedure: (§3) Human […] SH-SY5Y cells and rat pheochromocytoma PC12 cells were cultivated in RPMI medium with 10% fetal bovine serum and 5% horse serum. On a collagen-coated 96-well plate (Gibco, Life Technology, Carlsbad, CA, USA), 10.000 cells were seeded per well. The plate was incubated for 24 h at 37 °C and 5% CO2. TF2D-5 and TF2D-5a were added to the cells at concentrations of 0.2 µM, 1 µM, and 5 µM, respectively. As a positive control, 0.1% Trion X-100 was used. A medium was used as a negative control. The samples were incubated for a further 24 h at 37 °C and 5% CO2. Cell viability was determined by using the Cell Proliferation Kit 1 (MTT) (Roche, Basel, Switzerland) according to the instruction manual. The absorbance of generated formazan products was measured using a CLARIOstar plate reader (BMG, Offenburg, Germany). Absorption at 570 nm was measured and referenced against absorbance at 660 nm.
(§4) Figure S3. Peptide toxicity assay for different concentrations of TF2D -5 and TF2D-5a.
(§5) For this assay the compounds TF2D -5 and TF2D-5a were incubated on SHSY5Y and PC12 cells for 24 h at 37 °C and 5 % CO2. The “Cell Proliferation Kit 1” from Roche was used for the MTT assay. RPMI with 10 % HS and 5 % FBS was used as cell medium. As […] 0.1 % Triton X100 was used. For both assays no negative effect on the cell viability could be observed by addition of both compounds. […]

[4] = Stability in simulated intestinal fluid; assay type: in vitro ADME
Procedure: as §1, §2

[5] = molecular target: T1, full-length tau 441 (Homo sapiens, UniProt P10636); assay: Thioflavin-T assay of heparin-induced tau aggregation; assay type: biochemical
T1 construct: The gene for the human full-length tau was prepared on a plasmid called pET28a(+)-tau2N4R; made in house; host or cells: E. coli pRare
Procedure: Figure 5 Tau aggregation-influencing effect of TF2D-5 and TF2D-5a. The ThT assay was performed in a FLUOstar plate reader from BMG Labtech. Twenty-five micrometers recombinant full-length tau 441 was mixed with 12.5 µM heparin, 200 µM DTT, 0.05% NaN3, and […]. Compounds were added with a concentration of 25 µM. The total volume was adjusted to 100 µL with PBS pH 7.4, and the plate was measured with bottom optics. The experiment ran at 37 °C with measurement intervals of 20 min. Before each measurement, the plate was shaken for 15 s at 300 rpm. A 3 mm borosilicate bead was added to each well. (A) The effect of TF2D-5 when added at different time points during the ThT assay. When added at the start of the experiment no aggregation can be observed for the duration of the experiment (green). […] (B) The addition of TF2D-5a to the sample inhibits tau aggregation during the complete experiment which equals a lag time increase of at least 400% (blue). […] CP1 was obtained by randomizing the amino acid residue composition of TF2D-5.
To investigate whether TF2D-5 and TF2D-5a induce an extension of the lag time of tau aggregation, we performed a ThT experiment with sub-stoichiometric D-peptide concentrations. For this, we used tau that was produced according to the protocol in the Section 4. Twenty-five micrometers of full-length tau was incubated with 6.25 µM, 12.5 µM 25 µM, 50 µM, and 100 µM of D-peptides. As expected, we observed an increase in the lag time of the full-length tau aggregation with the increasing D-peptide concentrations. […] The addition of 6.25 µM of TF2D-5a shifted the lag time by about 60 h (a 200% increase).
ThT assays to characterize the aggregation inhibition properties of the selected compounds were conducted as follows. All measurements were performed in a FLUOstar plate reader (BMG, Offenburg, Germany). Recombinant full-length tau 441 (25 µM) was mixed with heparin (12.5 µM), DTT (200 µM), NaN3 (0.05%), and ThT (20 µM). […] The compounds were added with a maximum concentration of 25 µM. The total volume was adjusted to 100 µL with PBS pH 7.4, and the plate (Corning, New York, NY, USA) was measured with bottom optics. A 3 mm borosilicate bead (Hilgenberg GmbH, Malsfeld, Germany) was added to each well. The experiment ran at 37 °C, with measurement intervals of 20 min. Before each measurement, the plate was shaken for 15 s at 300 rpm.

[6] = system: PC12 cells; assay: Cell-viability assay (MTT); assay type: cell-based, rat; conditions: 0.2, 1 and 5 µM, 24 h, 37 °C
Procedure: as §3, §4, §5

[7] = Stability in human liver microsomes; assay type: in vitro ADME; conditions: 6 mg/mL protein, 1.3 mM NADPH with regenerating system, pH 7.4, after 24 h, read-out: still unmetabolized in human liver microsomes
Procedure: as §1, §2

[8] = 6.25 µM D-peptide, 25 µM full-length tau

T1 sequence (P10636 1-441 isoform P10636-8): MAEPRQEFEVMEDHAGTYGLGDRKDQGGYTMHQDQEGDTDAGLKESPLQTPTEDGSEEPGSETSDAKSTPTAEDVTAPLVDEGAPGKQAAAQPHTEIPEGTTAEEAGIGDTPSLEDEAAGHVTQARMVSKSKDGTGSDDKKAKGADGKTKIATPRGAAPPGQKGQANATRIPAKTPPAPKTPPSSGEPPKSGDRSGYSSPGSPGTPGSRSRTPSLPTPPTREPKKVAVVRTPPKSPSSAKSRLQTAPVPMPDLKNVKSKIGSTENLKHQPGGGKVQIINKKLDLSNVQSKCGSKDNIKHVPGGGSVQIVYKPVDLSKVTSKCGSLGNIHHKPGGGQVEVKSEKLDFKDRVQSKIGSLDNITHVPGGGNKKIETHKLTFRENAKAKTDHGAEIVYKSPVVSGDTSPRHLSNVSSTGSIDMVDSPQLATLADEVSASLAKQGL

Row | SMILES | remaining at 48 h [1] [%] | Papp permeability coefficient [2] [×10⁻⁶ cm/s] | toxicity (cell viability, MTT) [3] | stability in simulated intestinal fluid ([4]; SIF: 6.8 mg/mL KH2PO4, 10 mg/mL pancreas powder, 15.4 mM NaOH, pH 6.8) | lag time increase [5, 8] [%] | lag time increase ([5]; 12.5 µM D-peptide, 25 µM full-length tau) [%] | toxicity (cell viability, MTT) [6] | remaining at 24 h [7] [%] | metabolised at 8 h ([4]; simulated intestinal fluid with pancreas powder, SIF pH 6.8, 10 mg/mL pancreas powder, after about 8 h, read-out: decrease of level in simulated intestinal fluid) [%] | lag time increase ([5]; 25 µM compound, 25 µM tau 441, added at start)
1 | CC[C@@H](C)[C@@H](NC(=O)[C@@H](Cc1c[nH]cn1)NC(=O)CNC(=O)CNC(=O)[C@H]1CCCN1C(=O)[C@H](NC(=O)[C@@H](CCCCN)NC(=O)[C@@H](Cc1ccccc1)NC(=O)[C@@H](CC(C)C)NC(=O)[C@H](NC(=O)[C@@H](CCC(N)=O)NC(=O)[C@@H](Cc1ccc(O)cc1)NC(=O)CNC(=O)CNC(=O)[C@H](N)CC(=O)O)[C@H](C)CC)[C@H](C)CC)C(=O)N[C@H](Cc1c[nH]cn1)C(N)=O [TF2D-5] (H-[dD]GG[dY][dQ][dI][dL][dF][dK][dI][dP]GG[dH][dI][dH]-NH2) | 97.4 | 3.6 | not toxic | stable in simulated intestinal fluid | 100 | 200 | not toxic | 3.7 |  | 
2 | CC[C@@H](C)[C@@H](NC(=O)[C@@H](Cc1c[nH]cn1)NC(=O)CNC(=O)CNC(=O)[C@H]1CCCN1C(=O)[C@H](NC(=O)[C@@H](CCCCN)NC(=O)[C@@H](Cc1ccccc1)NC(=O)[C@@H](CC(C)C)NC(=O)[C@H](NC(=O)[C@@H](CCC(N)=O)NC(=O)[C@@H](Cc1ccc(O)cc1)NC(=O)CNC(=O)CNC(=O)[C@H](N)CC(=O)O)[C@H](C)CC)[C@H](C)CC)C(=O)N[C@H](Cc1c[nH]cn1)C(=O)N[C@H](CCCNC(=N)N)C(=O)N[C@H](CCCNC(=N)N)C(=O)N[C@H](CCCNC(=N)N)C(=O)N[C@H](CCCNC(=N)N)C(=O)N[C@H](CCCNC(=N)N)C(N)=O [TF2D-5a] (H-[dD]GG[dY][dQ][dI][dL][dF][dK][dI][dP]GG[dH][dI][dH][dR][dR][dR][dR][dR]-NH2) | 86.5 | 48 | not toxic |  | 200 |  | not toxic | 13.2 | 27.8 | at least 400%
